A short description of data set [1]: Maximum absorption wavelength band and absorbance, Shimadzu UV-1800 UV-vis spectrophotometer. The class given is physicochemical. The protocol: (§1) The maximum absorption wavelength bands and absorbance were measured using Shimadzu UV-1800 UV-vis. Spectrophotometer. Whether having lipid solubility was determined to be lipid soluble when the solubility of the compounds in MEK, PGMEA, cyclo-hexanone, or toluene was 1 wt % or more.

Data set [2] in a line: Whether having lipid solubility (solubility in MEK, PGMEA, cyclo-hexanone, or toluene). The class given is physicochemical. On the procedure: as §1

For the molecule `CCCCOc1ccc(/N=N/c2ccc(N3CCN(c4ccc(/N=N/c5ccc(OCCCC)cc5)cc4)CC3)cc2)cc1` [Compound A124], the “Maximum absorption wavelength band” value in data set [1] is 500-600 nm. Further, in data set [2], the “Whether having lipid solubility” value was “∘ (determined to be lipid soluble when the solubility of the compounds in MEK, PGMEA, cyclo-hexanone, or toluene was 1 wt % or more)”.
For the molecule `CCCCN(C)c1ccc(/N=N/c2ncc(-c3cnc(/N=N/c4ccc(N(C)CCCC)cc4)s3)s2)cc1` [Compound B117], in data set [1], the “Maximum absorption wavelength band” value is ≥ 600- nm. Moreover, the “Whether having lipid solubility” value in data set [2] was “∘ (determined to be lipid soluble when the solubility of the compounds in MEK, PGMEA, cyclo-hexanone, or toluene was 1 wt % or more)”.
Turning to `CCCCOc1ccc(/N=N/c2ccc(/C=C/c3ccc(/N=N/c4ccc(OCCCC)cc4)cc3)cc2)cc1` [Compound C103], the “Maximum absorption wavelength band” value in data set [1] is recorded as 400-500 nm. In addition, the “Whether having lipid solubility” value in data set [2] is reported as “∘ (determined to be lipid soluble when the solubility of the compounds in MEK, PGMEA, cyclo-hexanone, or toluene was 1 wt % or more)”.
For `CCN(CC)c1ccc(/N=N/c2ncc(-c3cnc(/N=N/c4ccc(N(CC)CC)cc4O)s3)s2)c(O)c1` [Compound B123], the “Maximum absorption wavelength band” value in data set [1] was ≥ 600- nm. In addition, the “Whether having lipid solubility” value in data set [2] was “∘ (determined to be lipid soluble when the solubility of the compounds in MEK, PGMEA, cyclo-hexanone, or toluene was 1 wt % or more)”.
Take `Nc1ccc(/N=N/c2ccc(-c3ccc(-c4ccc(/N=N/c5ccc(N)cc5)cc4)cc3)cc2)cc1` [Compound D110]: in data set [1], the “Maximum absorption wavelength band” value is listed as 500-600 nm. The “Whether having lipid solubility” value in data set [2] is “∘ (determined to be lipid soluble when the solubility of the compounds in MEK, PGMEA, cyclo-hexanone, or toluene was 1 wt % or more)”.
Turning to `CCCCN(C)c1ccc(/N=N/c2ccc(N3CCN(c4ccc(/N=N/c5ccc(N(C)CCCC)cc5)cc4)CC3)cc2)cc1` [Compound A133], the “Maximum absorption wavelength band” value in data set [1] was 500-600 nm. Moreover, the “Whether having lipid solubility” value in data set [2] is on record as “∘ (determined to be lipid soluble when the solubility of the compounds in MEK, PGMEA, cyclo-hexanone, or toluene was 1 wt % or more)”.
Consider `C=C(C)C(=O)N(CC)c1ccc(/N=N/c2ccc(N3CCN(c4ccc(/N=N/c5ccc(N(CC)C(=O)C(=C)C)cc5C)cc4)CC3)cc2)c(C)c1` [Compound A138], for which the “Maximum absorption wavelength band” value in data set [1] is 500-600 nm. In data set [2], the “Whether having lipid solubility” value was “∘ (determined to be lipid soluble when the solubility of the compounds in MEK, PGMEA, cyclo-hexanone, or toluene was 1 wt % or more)”.
For `Cc1c(O)c(/N=N/c2ncc(-c3cnc(/N=N/c4cc5ccc(N)cc5c(C)c4O)s3)s2)cc2ccc(N)cc12` [Compound B127], the “Maximum absorption wavelength band” value in data set [1] is given as ≥ 600- nm. Also, the “Whether having lipid solubility” value in data set [2] is reported as “∘ (determined to be lipid soluble when the solubility of the compounds in MEK, PGMEA, cyclo-hexanone, or toluene was 1 wt % or more)”.
For the molecule `CCN(CC)c1ccc(/N=N/c2ccc(N3CCN(c4ccc(/N=N/c5ccc(N(CC)CC)cc5O)cc4)CC3)cc2)c(O)c1` [Compound A132], the “Maximum absorption wavelength band” value in data set [1] was 500-600 nm. The “Whether having lipid solubility” value in data set [2] was “∘ (determined to be lipid soluble when the solubility of the compounds in MEK, PGMEA, cyclo-hexanone, or toluene was 1 wt % or more)”.

Values taken from patent US10442931B2, “Dye compound, composition comprising dye compound, and display device using dye compound” (Samsung Display Co. Ltd., priority 2017, dated 2019).
